Measured values from patent US5387709A, “Substituted sulfonamides, process of preparation and medicines containing same” (Lipha Lyonnaise Industrielle Pharmaceutique, priority 1990, dated 1995).

What was measured:
platelets of guinea-pig = assay: Inhibition of the platelet aggregation induced by U46619 (BORN test), guinea-pig platelets; type: cell-based; details: Cavia porcellus, Platelet, read-out: PLATELET AGGREGATION GUINEA-PIG IC 50
Source text: (A) Inhibition of the platelet aggregation induced by U46619, a stable analogue of TXA2 (9,11-dideoxy-11α,9α-epoxymethanoprostaglandine F2 α):
The tests determine a concentration of compound which inhibits at 50% (CI50) a liminar aggregation induced by U46619. The activities of the compounds of the present invention are given in example 108.
(§1) The products of examples 1 to 107 have been tested for platelet aggregation on guinea-pig and on the contraction of the aorta in rat as described previously.

rat aorta = assay: Inhibition of the U46619 induced rat aorta vasoconstriction; type: cell-based; details: Rattus norvegicus, contraction by U46619 (142 nM), rat thoracic aorta, 37° C.; read-out: VASOCONSTRICTION RAT AORTA IC 50
Method: (B) Inhibition of the U46619 induced rat aorta vasoconstriction:
male rats weighing about 300 g are put to death by euthanasia; the thoracic aorta is rapidly taken out. A sample of about 1 cm is cut into a spiral, and placed in a vat containing 20 ml of nutrient medium (Krebs-Henseleit) kept a 37° C. and oxygenated (O2 95%, CO2 5%). The contractions are recorded with an isotonic strain gauge. After a rest of 45 mn, supramaximum contractions are provoked by the addition of an analogue of TXA2 (U46619: 142 nM) to the survival medium. A plateau is generally reached after 10 mn of contact, the latter not exceeding 25 mn. A rest of 30 mn and a plurality of rinses take place after each contraction. The products are added 10 mn after U46619 and allowed to rest 15 mn, after which delay the inhibition is measured. The inhibitory concentration 50 (IC) is determined for each compound studied and on a minimum of 3 aortas. The activities of the compounds of the present invention are described in example 108.
as §1

Row | Compound | IC50 (platelets of guinea-pig) [nM] | IC50 (rat aorta) [nM]
1 | O=C(O)Cc1ccc(CC2(CNS(=O)(=O)c3ccccc3Cl)CCCC2)cc1 [Example 32, 4-[[1-[[[(2-Chlorophenyl)sulfonyl]amino]methyl]cyclopentyl]methyl]benzeneacetic acid] | 1800 | 400
2 | O=C(Cc1ccc(CC2(CNS(=O)(=O)c3ccc(Cl)cc3)CCCC2)cc1)N1CCOCC1 [Example 74, 4-Chloro-N-[[1-[[4-[2-(morpholin-4-yl)-2-oxoethyl]phenyl]methyl]cyclopentyl]methyl]benzenesulfonamide] | > 5000 | > 1000
3 | O=C(O)Cc1ccc(C2(CNS(=O)(=O)c3ccc(Cl)cc3)CCC2)cc1 [Example 13, 4-[1[[[(4-Chlorophenyl)sulfonyl]amino]methyl]cyclobutyl]benzeneacetic acid] | 680 | 60
4 | CCCCCCc1ccc(S(=O)(=O)NCC2(Cc3ccc(CC(=O)O)cc3)CCCC2)cc1 [Example 94, 4-[[1-[[[(4 -Hexylphenyl)sulfonyl]amino]methyl]cyclopentyl]methyl]benzeneacetic acid] | 1800 | > 1000
5 | O=C(O)Cc1ccc(C2(CNS(=O)(=O)c3ccc(Cl)cc3)CCCCC2)cc1 [Example 29, 4-[1-[[[(4-Chlorophenyl)sulfonyl]amino]methyl]cyclohexyl]benzeneacetic acid] | 5300 | 1000
6 | CC(=O)c1ccc(S(=O)(=O)NCC2(Cc3ccc(CCO)cc3)CCCC2)cc1 [Example 43, 4-Acetyl-N-[[1-[[4-(2-hydroxyethyl)phenyl]methyl]cyclopentyl]methyl]-benzenesulfonamide] | > 5000 | > 1000
7 | O=C(O)Cc1ccc(C[C@@H]2CCCC[C@H]2NS(=O)(=O)c2ccc(Cl)cc2)cc1 (relative stereo) [Example 11, Trans-4-[[2-[[(4-chlorophenyl)sulfonyl]amino]cyclohexyl]methyl]benzeneacetic acid] | 390 | 50
8 | O=C(O)Cc1ccc(CC2(CNS(=O)(=O)c3ccc(-c4ccccc4)cc3)CCCC2)cc1 [Example 101, 4-[[1-[[([1,1'-Biphenyl-4-yl]sulfonyl)amino]methyl]cyclopentyl]methyl]benzeneacetic acid] | > 5000 | > 1000
9 | O=C(O)Cc1ccc(CC2(CNS(=O)(=O)c3c(F)c(F)c(F)c(F)c3F)CCCC2)cc1 [Example 100, 4-[[1-[[[(Pentafluorophenyl)sulfonyl]amino]methyl]cyclopentyl]methyl]benzeneacetic acid] | > 5000 | > 1000
10 | O=C(O)Cc1ccc(CC2(CNS(=O)(=O)c3ccccc3)CCCC2)cc1 [Example 15, 4-[[1-[[[(Phenyl)sulfonyl]amino]methyl]cyclopentyl]methyl]benzeneacetic acid] | 1100 | 300
11 | O=C(O)Cc1ccc(CC2(CNS(=O)(=O)c3ccc([N+](=O)[O-])cc3)CCCC2)cc1 [Example 95] | 570 | 280
12 | O=C(O)Cc1ccc(C2(CNS(=O)(=O)c3ccc(Cl)cc3)CCCC2)cc1 [Example 14, 4-[1-[[[(4-Chlorophenyl)sulfonyl]amino]methyl]cyclopentyl]benzeneacetic acid] | 5500 | 70
13 | O=C(O)Cc1ccc(CC2(CNS(=O)(=O)c3ccc4ccccc4c3)CCCC2)cc1 [Example 102, 4-[[1-[[[(Naphthalen-2-yl)sulfonyl]amino]methyl]cyclopentyl]methyl]benzeneacetic acid] | 1000 | 
14 | CCCCCCOc1ccc(S(=O)(=O)NCC2(Cc3ccc(CC(=O)O)cc3)CCCC2)cc1 [Example 97, 4-[[1-[[[(4-Hexyloxyphenyl)sulfonyl]amino]methyl]cyclopentyl]methyl]benzeneacetic acid] | 5900 | > 1000
15 | O=C(O)Cc1ccc(CC2(CNS(=O)(=O)c3ccc(Cl)cc3)CCC(=O)CC2)cc1 [Example 91, 4-[[1-[[[(4-Chlorophenyl)sulfonyl]amino]methyl]-4-oxocyclohexyl]methyl]benzeneacetic acid] | 3100 | 1000
16 | O=C(O)Cc1ccc(CC2(CNS(=O)(=O)c3ccc(Cl)s3)CCCC2)cc1 [Example 68, 4-[[1-[[[(5-Chlorothien-2-yl)sulfonyl]amino]methyl]cyclopentyl]methyl]benzeneacetic acid] | 4000 | 400

Row | Compound | IC50 (platelets of guinea-pig) [nM] | IC50 (rat aorta) [nM]
17 | CC(=O)c1ccc(S(=O)(=O)NCC2(Cc3ccc(CC(=O)O)cc3)CCCC2)cc1 [Example 62, 4-[[1-[[[(4-Acetylphenyl)sulfonyl]amino]methyl]cyclopentyl]methyl]benzeneacetic acid] | 3000 | 750
18 | O=C1CCC(c2ccc(CC3(CNS(=O)(=O)c4ccc(Cl)cc4)CCCC3)cc2)=NN1 [Example 31, 4-Chloro-N-[[1-[[4-(4,5-dihydro-3-oxo-2H-pyridazin-6-yl)phenyl]methyl]cyclopentyl]methyl]-benzenesulfonamide] | 2500 | ≥ 1000
19 | CC(=O)c1ccc(CC2(CNS(=O)(=O)c3ccc(Cl)cc3)CCCC2)cc1 [Example 17, N-[[1-[(4-Acetylphenyl)methyl]cyclopentyl]methyl]-4-chlorobenzenesulfonamide] | > 20000 | > 1000
20 | CN(C)c1cccc2c(S(=O)(=O)NCC3(Cc4ccc(CC(=O)O)cc4)CCCC3)cccc12 [Example 104, 4-[[1-[[[[5-(Dimethylamino)naphthalen-1-yl]sulfonyl]amino]methyl]cyclopentyl]methyl]benzeneacetic acid] | > 5000 | > 1000
21 | N#Cc1ccc(S(=O)(=O)NCC2(Cc3ccc(CC(=O)O)cc3)CCCC2)cc1 [Example 57, 4-[[1-[[[(4-Cyanophenyl)sulfonyl]amino]methyl]cyclopentyl]methyl]benzeneacetic acid] | 690 | 100
22 | O=C(O)Cc1ccc(CC2(CNS(=O)(=O)c3ccc(O)cc3)CCCC2)cc1 [Example 71, 4-[[1-[[[(4-Hydroxyphenyl)sulfonyl]amino]methyl]cyclopentyl]methyl]benzeneacetic acid] | 3000 | 40
23 | Nc1ccc(S(=O)(=O)NCC2(Cc3ccc(Cc4nnn[nH]4)cc3)CCCC2)cc1 [Example 82, 4-Amino-N-[1-[[[4-[(1H-tetrazol-5-yl)methyl]phenyl]methyl]cyclopentyl]methyl]benzenesulfonamide] | 2000 | 1000
24 | Cc1ccc(S(=O)(=O)N[C@@H]2CCC[C@H]2Cc2ccc(CC(=O)O)cc2)cc1 (relative stereo) [Example 7, Trans-4-[[2-[[(4-methylphenyl)sulfonyl]amino]cyclopentyl]methyl]-benzeneacetic acid] | 3300 | 300
25 | O=C(O)Cc1ccc(CC2(CNS(=O)(=O)c3ccc(Cl)cc3F)CCCC2)cc1 [Example 105, 4-[[1-[[[(4-Chloro-2-fluorophenyl)sulfonyl]amino]methyl]cyclopentyl]methyl]benzeneacetic acid] | 570 | 110
26 | O=C(O)Cc1ccc(CC2(CNS(=O)(=O)c3ccc(Cl)cc3)CCCC2)cc1 [Example 19, 4-[[1-[[[(4-Chlorophenyl)sulfonyl]amino]methyl]cyclopentyl]methyl]benzeneacetic acid] | 260 | 100
27 | Cc1cnc2c(S(=O)(=O)NCC3(Cc4ccc(CC(=O)O)cc4)CCCC3)cccc2c1 [Example 66, 4-[[1-[[[(3-Methylquinol-8-yl)sulfonyl]amino]methyl]cyclopentyl]methyl]benzeneacetic acid] | > 5000 | > 1000
28 | O=C(O)Cc1ccc(CC2(CNS(=O)(=O)c3ccco3)CCCC2)cc1 [Example 70, 4-[[1-[[[(fur-2-yl)sulfonyl]amino]methyl]cyclopentyl]methyl]benzeneacetic acid] | > 5000 | 1000
29 | O=S(=O)(NCC1(Cc2ccc(CCO)cc2)CCCC1)c1ccc(OC(F)(F)F)cc1 [Example 45, N-[[1-[[4-(2-Hydroxyethyl)phenyl]methyl]cyclopentyl]methyl]-4-trifluoromethoxybenzenesulfonamide] | > 5000 | 
30 | CS(=O)(=O)c1ccc(S(=O)(=O)NCC2(Cc3ccc(CCO)cc3)CCCC2)cc1 [Example 44, N-[[1-[[4-(2-Hydroxyethyl)phenyl]methyl]cyclopentyl]methyl]-4-methylsulfonylbenzenesulfonamide] | > 5000 | 
31 | O=C(O)Cc1ccc(C[C@@H]2CCC[C@H]2NS(=O)(=O)c2ccc(Cl)cc2)cc1 (relative stereo) [Example 1, Trans-4-[[2-[[(4-chlorophenyl)sulfonyl]amino]cyclopentyl]methyl]-benzeneacetic acid] | 690 | 
32 | O=C(O)Cc1ccc(CC2(CNS(=O)(=O)c3cccc4cccnc34)CCCC2)cc1 [Example 106, 4-[[1-[[[(Quinol-8-yl)sulfonyl]amino]methyl]cyclopentyl]methyl]benzeneacetic acid] | > 5000 | 
